In ChEMBL document CHEMBL3627608, “Crystal structures of human RIP2 kinase catalytic domain complexed with ATP-competitive inhibitors: Foundations for understanding inhibitor selectivity” (Bioorg Med Chem, 2015):

Experiments:
[1] = target: T1, Serine/threonine-protein kinase LATS2 (Homo sapiens) (UniProt Q9NRM7); assay: Inhibition of LATS2 (unknown origin) at 10 uM after 120 mins P33 radiolabeled kinase activity assay
T1 sequence (whole entry): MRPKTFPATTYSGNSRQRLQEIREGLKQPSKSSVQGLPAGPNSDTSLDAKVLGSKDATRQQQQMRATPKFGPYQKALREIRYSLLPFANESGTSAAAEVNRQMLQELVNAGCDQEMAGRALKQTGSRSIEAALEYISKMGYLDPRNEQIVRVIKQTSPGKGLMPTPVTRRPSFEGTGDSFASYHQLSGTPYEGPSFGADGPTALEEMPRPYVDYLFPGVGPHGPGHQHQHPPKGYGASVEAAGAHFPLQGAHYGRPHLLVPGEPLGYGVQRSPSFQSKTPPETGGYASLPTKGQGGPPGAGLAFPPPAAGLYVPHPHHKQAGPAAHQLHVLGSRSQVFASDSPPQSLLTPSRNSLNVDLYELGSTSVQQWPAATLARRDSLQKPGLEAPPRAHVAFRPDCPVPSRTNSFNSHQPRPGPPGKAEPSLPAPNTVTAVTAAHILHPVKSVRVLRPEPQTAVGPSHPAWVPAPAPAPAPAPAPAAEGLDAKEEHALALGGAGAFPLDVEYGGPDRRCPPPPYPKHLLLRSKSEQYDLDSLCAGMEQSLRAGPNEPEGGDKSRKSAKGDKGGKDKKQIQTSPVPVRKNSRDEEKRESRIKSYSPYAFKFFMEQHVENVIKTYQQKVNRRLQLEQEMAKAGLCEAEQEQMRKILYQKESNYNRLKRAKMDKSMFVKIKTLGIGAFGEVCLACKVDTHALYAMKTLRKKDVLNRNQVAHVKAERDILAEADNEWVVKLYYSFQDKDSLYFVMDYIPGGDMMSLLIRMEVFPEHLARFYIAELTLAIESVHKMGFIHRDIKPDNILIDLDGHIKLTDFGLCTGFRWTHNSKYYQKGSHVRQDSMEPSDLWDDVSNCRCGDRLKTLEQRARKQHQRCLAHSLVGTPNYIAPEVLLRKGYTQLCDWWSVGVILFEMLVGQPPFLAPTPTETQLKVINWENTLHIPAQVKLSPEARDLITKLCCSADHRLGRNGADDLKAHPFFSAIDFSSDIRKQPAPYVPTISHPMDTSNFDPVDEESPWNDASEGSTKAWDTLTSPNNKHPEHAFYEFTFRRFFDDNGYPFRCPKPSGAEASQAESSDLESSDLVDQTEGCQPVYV

[2] = target: T2, Ephrin type-A receptor 8 (Homo sapiens) (UniProt P29322); assay: Inhibition of EPHA8 (unknown origin) at 10 uM after 120 mins P33 radiolabeled kinase activity assay
T2 sequence (whole entry): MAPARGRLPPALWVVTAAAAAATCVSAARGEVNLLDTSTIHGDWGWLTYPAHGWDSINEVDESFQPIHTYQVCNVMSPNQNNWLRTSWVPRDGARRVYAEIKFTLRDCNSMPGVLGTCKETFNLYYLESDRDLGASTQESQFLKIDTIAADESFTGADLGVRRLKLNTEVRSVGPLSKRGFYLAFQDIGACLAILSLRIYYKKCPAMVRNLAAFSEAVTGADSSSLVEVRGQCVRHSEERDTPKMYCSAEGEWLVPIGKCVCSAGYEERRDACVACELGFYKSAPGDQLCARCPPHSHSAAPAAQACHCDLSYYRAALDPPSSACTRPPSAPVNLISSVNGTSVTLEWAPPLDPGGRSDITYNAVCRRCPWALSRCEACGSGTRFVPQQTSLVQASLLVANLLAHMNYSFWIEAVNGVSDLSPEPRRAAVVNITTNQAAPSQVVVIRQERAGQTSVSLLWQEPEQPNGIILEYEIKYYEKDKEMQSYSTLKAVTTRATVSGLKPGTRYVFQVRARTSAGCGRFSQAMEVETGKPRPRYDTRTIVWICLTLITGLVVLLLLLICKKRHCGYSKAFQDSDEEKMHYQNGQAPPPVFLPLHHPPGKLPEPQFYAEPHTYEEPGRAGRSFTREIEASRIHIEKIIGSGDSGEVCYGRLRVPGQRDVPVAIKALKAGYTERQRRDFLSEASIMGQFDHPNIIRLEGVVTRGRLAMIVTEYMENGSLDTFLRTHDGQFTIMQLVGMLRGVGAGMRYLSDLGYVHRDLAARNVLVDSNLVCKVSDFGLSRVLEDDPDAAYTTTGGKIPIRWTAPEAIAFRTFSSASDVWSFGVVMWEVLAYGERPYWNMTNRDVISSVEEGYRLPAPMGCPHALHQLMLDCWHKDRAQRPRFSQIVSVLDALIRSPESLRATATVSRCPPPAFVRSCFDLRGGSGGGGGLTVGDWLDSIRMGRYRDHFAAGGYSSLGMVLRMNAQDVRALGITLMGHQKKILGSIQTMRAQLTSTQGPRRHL

[3] = target: Mitogen-activated protein kinase kinase kinase 1 (Homo sapiens) (UniProt Q13233); assay: Inhibition of MEKK1 (unknown origin) at 10 uM after 120 mins P33 radiolabeled kinase activity assay
Mitogen-activated protein kinase kinase kinase 1 (Homo sapiens), sequence (Q13233 whole entry): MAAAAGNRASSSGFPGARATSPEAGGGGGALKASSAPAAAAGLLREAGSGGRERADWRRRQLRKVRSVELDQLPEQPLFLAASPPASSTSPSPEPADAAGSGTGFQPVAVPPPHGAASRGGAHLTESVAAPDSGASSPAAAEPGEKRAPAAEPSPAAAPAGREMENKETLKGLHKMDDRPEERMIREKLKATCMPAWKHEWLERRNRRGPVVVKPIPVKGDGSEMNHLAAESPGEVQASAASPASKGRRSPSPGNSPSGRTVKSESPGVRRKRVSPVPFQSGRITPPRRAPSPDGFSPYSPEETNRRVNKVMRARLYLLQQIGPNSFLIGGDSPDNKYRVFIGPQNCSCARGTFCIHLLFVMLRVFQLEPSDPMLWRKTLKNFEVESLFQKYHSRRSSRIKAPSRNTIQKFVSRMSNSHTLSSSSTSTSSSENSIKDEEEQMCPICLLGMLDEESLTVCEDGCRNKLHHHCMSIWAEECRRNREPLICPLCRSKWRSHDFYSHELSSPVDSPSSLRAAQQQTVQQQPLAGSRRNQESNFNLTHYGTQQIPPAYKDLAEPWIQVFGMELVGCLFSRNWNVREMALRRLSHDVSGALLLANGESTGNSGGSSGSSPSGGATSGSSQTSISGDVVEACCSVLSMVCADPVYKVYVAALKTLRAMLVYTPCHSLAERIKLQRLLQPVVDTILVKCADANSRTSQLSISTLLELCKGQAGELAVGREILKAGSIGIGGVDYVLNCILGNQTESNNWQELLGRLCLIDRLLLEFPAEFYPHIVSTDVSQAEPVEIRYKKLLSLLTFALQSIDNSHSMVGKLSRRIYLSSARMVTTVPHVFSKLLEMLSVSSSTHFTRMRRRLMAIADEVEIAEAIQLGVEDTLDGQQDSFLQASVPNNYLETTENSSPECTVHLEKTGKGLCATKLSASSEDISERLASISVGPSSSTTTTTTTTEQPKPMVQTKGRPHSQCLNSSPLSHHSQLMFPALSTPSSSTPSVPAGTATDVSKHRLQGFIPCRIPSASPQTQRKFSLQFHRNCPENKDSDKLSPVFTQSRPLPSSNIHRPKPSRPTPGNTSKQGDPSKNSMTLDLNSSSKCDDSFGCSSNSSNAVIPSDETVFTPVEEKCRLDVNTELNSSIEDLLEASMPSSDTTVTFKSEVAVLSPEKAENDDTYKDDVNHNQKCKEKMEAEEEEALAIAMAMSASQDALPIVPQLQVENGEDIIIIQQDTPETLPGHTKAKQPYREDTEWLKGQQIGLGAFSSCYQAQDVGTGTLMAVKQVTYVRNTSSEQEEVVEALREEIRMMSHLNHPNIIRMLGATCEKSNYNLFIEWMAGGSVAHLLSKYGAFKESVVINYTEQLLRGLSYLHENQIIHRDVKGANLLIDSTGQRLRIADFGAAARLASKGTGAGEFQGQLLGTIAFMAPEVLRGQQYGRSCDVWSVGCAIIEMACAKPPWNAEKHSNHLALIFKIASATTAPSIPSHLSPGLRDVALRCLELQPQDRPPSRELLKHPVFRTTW

[4] = target: Vascular endothelial growth factor receptor 1 (Homo sapiens) (UniProt P17948); assay: Inhibition of FLT1 (unknown origin) at 10 uM after 120 mins P33 radiolabeled kinase activity assay
Vascular endothelial growth factor receptor 1 (Homo sapiens), sequence (P17948 whole entry): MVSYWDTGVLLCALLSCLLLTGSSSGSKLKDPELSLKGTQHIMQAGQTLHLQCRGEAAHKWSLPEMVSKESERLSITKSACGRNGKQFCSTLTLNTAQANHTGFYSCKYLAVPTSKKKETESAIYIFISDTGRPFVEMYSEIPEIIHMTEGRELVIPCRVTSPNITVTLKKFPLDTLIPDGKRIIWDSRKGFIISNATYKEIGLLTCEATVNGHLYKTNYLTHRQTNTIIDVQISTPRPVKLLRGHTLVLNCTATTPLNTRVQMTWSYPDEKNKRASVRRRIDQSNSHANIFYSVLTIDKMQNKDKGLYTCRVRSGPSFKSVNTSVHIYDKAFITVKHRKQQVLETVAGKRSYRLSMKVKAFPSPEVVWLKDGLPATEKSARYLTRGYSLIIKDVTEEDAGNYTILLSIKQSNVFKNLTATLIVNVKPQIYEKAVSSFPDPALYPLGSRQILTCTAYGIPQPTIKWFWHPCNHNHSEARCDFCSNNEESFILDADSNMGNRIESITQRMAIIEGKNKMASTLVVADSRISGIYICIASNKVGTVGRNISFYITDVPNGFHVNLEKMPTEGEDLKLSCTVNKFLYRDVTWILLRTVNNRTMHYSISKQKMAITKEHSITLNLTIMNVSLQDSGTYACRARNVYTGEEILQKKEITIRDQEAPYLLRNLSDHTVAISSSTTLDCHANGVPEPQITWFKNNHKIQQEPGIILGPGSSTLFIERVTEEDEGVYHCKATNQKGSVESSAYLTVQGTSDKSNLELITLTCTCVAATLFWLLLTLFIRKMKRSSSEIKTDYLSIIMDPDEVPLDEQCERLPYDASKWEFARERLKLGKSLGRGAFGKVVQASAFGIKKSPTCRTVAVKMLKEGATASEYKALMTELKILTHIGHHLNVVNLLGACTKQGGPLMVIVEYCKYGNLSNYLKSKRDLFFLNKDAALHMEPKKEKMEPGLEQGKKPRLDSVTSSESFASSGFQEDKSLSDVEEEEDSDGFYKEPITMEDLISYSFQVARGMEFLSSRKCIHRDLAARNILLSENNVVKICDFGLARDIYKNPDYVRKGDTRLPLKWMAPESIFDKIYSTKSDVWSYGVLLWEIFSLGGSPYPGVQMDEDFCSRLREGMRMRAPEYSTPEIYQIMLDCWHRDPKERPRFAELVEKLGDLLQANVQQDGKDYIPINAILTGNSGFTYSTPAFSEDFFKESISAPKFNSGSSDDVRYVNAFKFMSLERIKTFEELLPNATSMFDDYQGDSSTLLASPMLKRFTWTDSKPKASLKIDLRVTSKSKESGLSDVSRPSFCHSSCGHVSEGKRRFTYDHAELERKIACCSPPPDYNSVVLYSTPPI

[5] = target: Serine/threonine-protein kinase Chk2 (Homo sapiens) (UniProt O96017); assay: Inhibition of CHK2 (unknown origin) at 10 uM after 120 mins P33 radiolabeled kinase activity assay
Serine/threonine-protein kinase Chk2 (Homo sapiens), sequence (O96017 whole entry): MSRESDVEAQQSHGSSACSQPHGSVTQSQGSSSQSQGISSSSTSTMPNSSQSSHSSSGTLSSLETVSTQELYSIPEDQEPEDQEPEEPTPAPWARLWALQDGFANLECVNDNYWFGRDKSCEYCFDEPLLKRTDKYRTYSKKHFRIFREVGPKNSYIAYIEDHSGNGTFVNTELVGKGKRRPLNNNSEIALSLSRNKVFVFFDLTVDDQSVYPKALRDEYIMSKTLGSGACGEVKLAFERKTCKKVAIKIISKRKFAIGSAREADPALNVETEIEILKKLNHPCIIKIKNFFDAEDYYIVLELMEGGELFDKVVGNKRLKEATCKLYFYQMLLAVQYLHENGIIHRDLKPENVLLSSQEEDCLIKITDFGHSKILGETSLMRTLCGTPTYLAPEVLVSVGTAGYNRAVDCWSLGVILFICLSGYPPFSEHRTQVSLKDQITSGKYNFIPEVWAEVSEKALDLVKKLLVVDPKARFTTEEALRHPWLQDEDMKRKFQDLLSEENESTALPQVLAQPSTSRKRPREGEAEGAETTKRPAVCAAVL

[6] = target: Dual specificity protein kinase CLK4 (Homo sapiens) (UniProt Q9HAZ1); assay: Inhibition of CLK4 (unknown origin) at 10 uM after 120 mins P33 radiolabeled kinase activity assay
Dual specificity protein kinase CLK4 (Homo sapiens), sequence (Q9HAZ1 whole entry, looked up): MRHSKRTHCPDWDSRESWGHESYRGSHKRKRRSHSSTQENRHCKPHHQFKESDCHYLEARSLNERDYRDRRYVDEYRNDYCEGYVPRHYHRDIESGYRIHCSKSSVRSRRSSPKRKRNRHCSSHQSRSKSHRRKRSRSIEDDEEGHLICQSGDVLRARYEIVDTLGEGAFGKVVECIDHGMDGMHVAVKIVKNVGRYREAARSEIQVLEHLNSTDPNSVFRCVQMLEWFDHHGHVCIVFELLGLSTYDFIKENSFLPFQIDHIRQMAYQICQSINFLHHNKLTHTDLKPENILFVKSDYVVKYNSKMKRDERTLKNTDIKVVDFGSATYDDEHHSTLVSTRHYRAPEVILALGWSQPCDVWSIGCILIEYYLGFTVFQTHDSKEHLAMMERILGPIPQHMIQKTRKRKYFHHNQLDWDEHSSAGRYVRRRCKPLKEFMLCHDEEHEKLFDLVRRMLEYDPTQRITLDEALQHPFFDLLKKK

[7] = target: Tyrosine-protein kinase BTK (Homo sapiens) (UniProt Q06187); assay: Inhibition of BTK (unknown origin) at 10 uM after 120 mins P33 radiolabeled kinase activity assay
Tyrosine-protein kinase BTK (Homo sapiens), sequence (Q06187 whole entry): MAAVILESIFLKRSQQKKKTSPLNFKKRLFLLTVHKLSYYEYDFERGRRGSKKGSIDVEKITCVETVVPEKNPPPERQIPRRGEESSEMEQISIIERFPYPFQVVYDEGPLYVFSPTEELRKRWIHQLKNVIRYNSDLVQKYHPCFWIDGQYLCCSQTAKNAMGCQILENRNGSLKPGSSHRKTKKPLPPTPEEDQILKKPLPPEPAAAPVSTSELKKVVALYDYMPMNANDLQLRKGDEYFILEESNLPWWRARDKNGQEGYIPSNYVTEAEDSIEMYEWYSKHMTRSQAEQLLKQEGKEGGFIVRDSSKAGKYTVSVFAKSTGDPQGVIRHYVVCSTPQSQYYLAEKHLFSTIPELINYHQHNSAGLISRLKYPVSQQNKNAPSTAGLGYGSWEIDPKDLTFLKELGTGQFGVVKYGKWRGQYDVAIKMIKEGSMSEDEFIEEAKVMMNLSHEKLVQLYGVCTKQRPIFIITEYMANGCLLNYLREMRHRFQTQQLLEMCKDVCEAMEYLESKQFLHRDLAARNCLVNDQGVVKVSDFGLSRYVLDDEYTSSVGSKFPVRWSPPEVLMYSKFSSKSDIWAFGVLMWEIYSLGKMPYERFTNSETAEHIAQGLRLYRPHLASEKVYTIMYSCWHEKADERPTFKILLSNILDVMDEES

Row | inhibition [1] [%] | inhibition [2] [%] | inhibition [3] [%] | inhibition [4] [%] | inhibition [5] [%] | inhibition [6] [%] | inhibition [7] [%] | SMILES
1 | 21.9 | 74.6 | -3 | 98 | 51.7 | 36.7 | 96 | CS(=O)(=O)c1cccc(Nc2nccc(-c3sc(N4CCOCC4)nc3-c3cccc(NS(=O)(=O)c4c(F)cccc4F)c3)n2)c1
2 | 2.32 | 12.2 | -3.24 | 0.33 | -5.19 | 41.3 | 19.4 | COCCNC(=O)c1ccc2c(c1)nc(-c1cnc(-c3ccc(Cl)cc3)[nH]1)n2CCOC
3 | 50.2 | 80.5 | 25.2 | 97.5 | 11.1 | 36.5 | 20.3 | CC(C)(C)c1cc(NC(=O)Nc2ccc(Oc3ccncc3)cc2)no1
